Experimental data from ChEMBL document CHEMBL3886401, “Disubstituted benzothienyl-pyrrolotriazines and uses thereof” (2015).

What was measured:
[1] = target: Fibroblast growth factor receptor 3 (Homo sapiens, UniProt P22607); assay: Kinase Assay: For the assay, 50 nl of each stock solution of the test compound in DMSO was pipetted into a black, low-volume 384-well microtiter plate (Greiner Bio-One, Frickenhausen, Germany) 2 ul of a solution of the above FGFR-3 fusion protein in aqueous assay buffer [8 mM MOPS pH 7.0, 10 mM magnesium acetate, 1.0 mM dithiothreitol, 0.05% (w/v) bovine serum albumin (BSA), 0.07% (v/v) Tween-20 …
[2] = target: Fibroblast growth factor receptor 1 (Homo sapiens, UniProt P11362); assay: High ATP Kinase Assay: For the assay, 50 nl of each stock solution of the test compound in DMSO was pipetted into a black, low-volume 384-well microtiter plate (Greiner Bio-One, Frickenhausen, Germany) 2 Î¼l of a solution of the above FGFR-1 fusion protein in aqueous assay buffer [8 mM MOPS pH 7.0, 10 mM magnesium acetate, 1.0 mM dithiothreitol, 0.05% (w/v) bovine serum albumin (BSA), 0.07% (v/v) …
Sequence of Fibroblast growth factor receptor 1 (P11362 whole entry, the tested form may be a part): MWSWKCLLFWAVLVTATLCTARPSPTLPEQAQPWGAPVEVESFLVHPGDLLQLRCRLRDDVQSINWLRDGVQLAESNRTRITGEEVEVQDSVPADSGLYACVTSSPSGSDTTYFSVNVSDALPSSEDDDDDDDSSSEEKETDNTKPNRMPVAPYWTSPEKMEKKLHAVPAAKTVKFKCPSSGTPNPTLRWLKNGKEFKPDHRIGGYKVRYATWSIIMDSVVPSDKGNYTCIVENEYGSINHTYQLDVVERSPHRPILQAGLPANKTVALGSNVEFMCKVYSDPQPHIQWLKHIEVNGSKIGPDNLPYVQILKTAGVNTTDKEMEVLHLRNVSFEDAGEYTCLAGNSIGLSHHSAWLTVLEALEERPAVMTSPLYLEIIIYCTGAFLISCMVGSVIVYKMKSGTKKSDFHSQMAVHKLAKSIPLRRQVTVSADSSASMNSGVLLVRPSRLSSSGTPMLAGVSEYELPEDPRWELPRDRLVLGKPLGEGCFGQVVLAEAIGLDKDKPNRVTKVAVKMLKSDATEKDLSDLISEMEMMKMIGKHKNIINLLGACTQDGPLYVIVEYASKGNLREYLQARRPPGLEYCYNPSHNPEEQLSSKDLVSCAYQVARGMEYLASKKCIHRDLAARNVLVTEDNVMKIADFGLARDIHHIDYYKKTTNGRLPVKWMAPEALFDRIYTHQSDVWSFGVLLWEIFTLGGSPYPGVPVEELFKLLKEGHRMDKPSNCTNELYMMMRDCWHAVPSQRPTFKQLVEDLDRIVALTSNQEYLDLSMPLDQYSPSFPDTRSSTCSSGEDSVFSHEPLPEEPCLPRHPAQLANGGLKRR

Sequence of Fibroblast growth factor receptor 3 (P22607 whole entry, the tested form may be a part): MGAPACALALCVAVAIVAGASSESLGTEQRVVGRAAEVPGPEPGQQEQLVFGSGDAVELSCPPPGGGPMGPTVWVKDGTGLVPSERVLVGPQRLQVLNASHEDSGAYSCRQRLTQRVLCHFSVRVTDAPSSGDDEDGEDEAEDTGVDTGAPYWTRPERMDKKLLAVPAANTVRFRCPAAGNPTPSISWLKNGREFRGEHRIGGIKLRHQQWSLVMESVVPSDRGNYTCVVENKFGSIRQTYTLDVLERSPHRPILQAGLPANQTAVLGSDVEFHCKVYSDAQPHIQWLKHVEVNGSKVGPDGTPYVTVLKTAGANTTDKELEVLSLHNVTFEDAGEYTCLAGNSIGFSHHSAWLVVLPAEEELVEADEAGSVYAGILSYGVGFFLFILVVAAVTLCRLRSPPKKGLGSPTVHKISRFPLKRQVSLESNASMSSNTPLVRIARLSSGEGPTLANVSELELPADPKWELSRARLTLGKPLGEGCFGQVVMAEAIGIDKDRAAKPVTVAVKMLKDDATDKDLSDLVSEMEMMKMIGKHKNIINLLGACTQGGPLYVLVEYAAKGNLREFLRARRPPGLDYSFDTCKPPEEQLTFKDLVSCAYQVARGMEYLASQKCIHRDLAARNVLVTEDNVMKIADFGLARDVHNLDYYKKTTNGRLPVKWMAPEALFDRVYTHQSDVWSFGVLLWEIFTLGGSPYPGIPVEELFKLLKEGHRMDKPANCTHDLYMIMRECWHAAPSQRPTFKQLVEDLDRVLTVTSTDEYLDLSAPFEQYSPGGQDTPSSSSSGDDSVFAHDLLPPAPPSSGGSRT

| IC50 [1] [nM] | IC50 [2] [nM] | Structure (SMILES) |
| --- | --- | --- |
| 58.1 | 55.3 | COCc1c(-c2cc3cc(C)cc(OC)c3s2)c2c(N)ncnn2c1C#N |
|  | 3.9 | COCc1c(CN2CCNC(=O)C2)c(-c2cc3cc(C)cc(OC)c3s2)c2c(N)ncnn12 |
| 0.7 | 1.4 | COc1cc(C)cc2cc(-c3c(CNC(C)=O)c(CNC(C)=O)n4ncnc(N)c34)sc12 |
|  | 39.1 | CCOCc1c(-c2cc3cc(C)cc(OC)c3s2)c2c(N)ncnn2c1C#N |
|  | 8 | CCOCc1c(CN2CCNC(=O)C2)c(-c2cc3cc(C)cc(OC)c3s2)c2c(N)ncnn12 |
